The nature of assay [1]: Food intake measured three consecutive days per week. Further details: key: ns: not significant; *: p < 0.05; **: p < 0.005; ***: p < 0.001; ****: p < 0.0001. The note with it: male C57Bl/6 DIO mice, 2-way ANOVA with Dunnett's analysis. In kind it is in vivo. The procedure: (§1) Male C57Bl/6 DIO mice, 19-20 weeks old (13-14 weeks on high fat diet) at beginning of dosing, were placed into the following treatment groups: Group A—Vehicle, in which the animals were administered vehicle weekly; Group B—Dulaglutide, in which the animals were administered 0.1 mg/kg (2 nmol/kg) of dulaglutide twice per week; Group C—GIPR Ab, in which the animals were administered 5 mg/kg (33 nmol/kg) of antibody 2.63.1 (having a light and heavy chain sequence of SEQ ID NOs: 105 and 106, respectively) weekly and vehicle weekly (the latter being on the alternate dulaglutide dosing day); Group D—GDF15, in which the animals were administered 0.125 mg/kg (1 nmol/kg) of FcΔ10(−)-(G4S)4-GDF15 (SEQ ID NO: 39) (along with its heterodimerization partner, FcΔ10(+,K) (SEQ ID NO: 32)) weekly and vehicle weekly (the latter on the alternate dulaglutide dosing day); Group E—GDF15+Dulaglutide, in which the animals were administered 0.125 mg/kg (1 nmol/kg) of FcΔ10(−)-(G4S)4-GDF15) (along with its heterodimerization partner, FcΔ10(+,K)) weekly and 0.1 mg/kg (2 nmol/kg) of dulaglutide twice per week; Group F—GDF15+GIPR Ab, in which the animals were administered 0.125 mg/kg (1 nmol/kg) of FcΔ10(−)-(G4S)4-GDF15 (along with its heterodimerization partner, FcΔ10(+,K)) weekly and 5 mg/kg (33 nmol/kg) of antibody 2.63.1 weekly. The animals were dosed for 5 weeks with through subcutaneous injection.

Assay [2] in a line: Body weight change in DIO mice treated for 5 weeks. In kind it is in vivo. Further details: key to Significance of Body Weight Change: ns: not significant; *: p < 0.05; **: p < 0.005; ***: p < 0.001; ****: p < 0.0001. The note with it: subcutaneous; for Significance of Body Weight Change: male C57Bl/6 DIO mice, 2-way ANOVA with Dunnett's analysis. The procedure: as §1
Body weight was measured twice per week.

Take dulaglutide [reference compound]: the “Significance of Food Intake Assay” value in assay [1] (D2), in assay [1] (D8), in assay [1] (D9), in assay [1] (D10), in assay [1] (D15) and in assay [1] (D16) was “ns” each time. In addition, the “Significance of Food Intake Assay” value in assay [1] (D17) is on record as “* (p < 0.05)”; in assay [1] (D22), “**** (p < 0.0001)”; in assay [1] (D23), “ns”; in assay [1] (D24), “ns”; in assay [1] (D29), “ns”; in assay [1] (D30), “ns”. For the same substance, in assay [1] (D31), the “Significance of Food Intake Assay” value was “ns”. Besides, the “Significance of Body Weight Change” value in assay [2] (D0) is listed as “ns”; in assay [2] (D3), “ns”; in assay [2] (D7), “ns”; in assay [2] (D10), “** (p < 0.005)”; in assay [2] (D14), “** (p < 0.005)”; in assay [2] (D17), “**** (p < 0.0001)”. Also, the “Significance of Body Weight Change” value in assay [2] (D21) is “*** (p < 0.001)”; in assay [2] (D31) it was “*** (p < 0.001)”; in assay [2] (D35) it was “*** (p < 0.001)”; in assay [2] (D-4) it was “ns”. Also, in assay [2] (five weeks after treatment, DIO mice), the “change in body weight” value is reported as −1.96%.

For the origin of these results see patent US20220152154A1, “GROWTH DIFFERENTIATION FACTOR 15 COMBINATION THERAPY” (Amgen Inc., priority 2019, published 2022).
